Reference: patent US8779157B2, “MGLUR4 allosteric potentiators, compositions, and methods of treating neurological dysfunction” (Vanderbilt University, priority 2009, dated 2014)

Molecular target: mGluR4 (UniProt Q14833)
Assay: mGluR4 potentiation assay (fluorescence, Ca2+ or thallium/GIRK readout; EC20 agonist)
Assay type: cell-based, human / rat
Details: half maximal effective concentration for mGluR4 potentiation; species of receptor not given
Description: The disclosed compounds and compositions can be evaluated for their ability to act as a potentiator of metabotropic glutamate receptor activity, in particular mGluR4 activity, by any suitable known methodology known in the art. For example, Chinese Hamster Ovary (CHO) cells transfected with human mGluR4 or HEK cells co-transfected with rat mGluR4 and the G-protein regulated Inwardly Rectifying Potassium channel (GIRK) were plated in clear bottom assay plates for assay in a Hamamatsu FDSS Fluorometric Plate Reader. The cells were loaded with either a Ca2+-sensitive fluorescent dye or the thallium responsive dye and the plates were washed and placed into a suitable kinetic plate reader. For human mGluR4 assays, a fluorescence baseline was established for 3-5 seconds, the disclosed compounds were then added to the cells, and the response in cells was measured. Approximately two and a half minutes later, a concentration of mGluR4 orthosteric agonist (e.g. glutamate or L-AP4) eliciting approximately 20% (EC20) of the maximal agonist response was added to the cells, and the response was measured. Two minutes later, a concentration of mGluR4 agonist (e.g. glutamate or L-AP4) eliciting 80% (EC80) of the maximal agonist response was added to the cells, and the response was measured. For rat mGluR4/GIRK experiments, a baseline was established for approximately five seconds, disclosed compounds were added, and either an EC20 or EC80 concentration of agonist was added approximately two and one half minutes later. Potentiation of the agonist response of mGluR4 by the disclosed compounds was observed as an increase in response to the EC20 concentration of agonist in the presence of compound compared to the response to agonist in the absence of compound. Similarly, antagonism of the agonist response of mGluR4 by the disclosed compounds was observed as a decrease in response to the EC80 concentration of agonist in the presence of compound compared to the response to agonist in the absence of compound.
The above described assay operated in two modes. In the first mode, a range of concentrations of the disclosed compounds are added to cells, followed by a single fixed concentration of agonist. If the compound acts as a potentiatior, an EC50 value for potentiation and a maximum extent of potentiation by the compound at this concentration of agonist is determined by non-linear curve fitting. If the compound acts as a noncompetitive antagonist, an IC50 value is determined by non-linear curve fitting. In the second mode, several fixed concentrations of the disclosed compounds are added to various wells on a plate, followed by a range in concentrations of agonist for each concentration of disclosed compound. The EC50 values for the agonist at each concentration of compound are determined by non-linear curve fitting. A decrease in the EC50 value of the agonist with increasing concentrations of the sample compound (a leftward shift of the agonist concentration-response curve) is an indication of the degree of mGluR4 potentiation at a given concentration of the sample compound. A decrease in the maximal response of the agonist with increasing concentrations of the sample compounds, with or without a rightward shift in agonist potency, is an indication of the degree of noncompetitive antagonism at mGluR4. The second mode also indicates whether the sample compounds also affect the maximum response to mGluR4 to agonists.

| SMILES | EC50 |
| --- | --- |
| CC12CCCCN1C(=O)N(c1ccc(NC(=O)c3nccs3)cc1Cl)C2=O (stereo not drawn) [Example 1.3.86, N-(3-chloro-4-(8a-methyl-1,3-dioxohexahydroimidazo[1,5-a]pyridin-2(3H)-yl)phenyl)thiazole-2-carboxamide] | 1630 nM |
| CC(C)[C@@]1(C)NC(=O)N(c2ccc(NC(=O)c3ccccn3)cc2Cl)C1=O [Example 1.3.60, (R)-N-(3-chloro-4-(4-isopropyl-4-methyl-2,5-dioxoimidazolidin-1-yl)phenyl)picolinamide] | 3590 nM |
| O=C(Nc1ccc(N2C(=O)C3COCCN3C2=S)c(Cl)c1)c1ccc(Cl)o1 (stereo not drawn) [Example 1.3.37, 5-Chloro-N-(3-chloro-4-(1-oxo-3-thioxodihydro-1H-imidazo[5,1-c][1,4]oxazin-2(3H, 8H,8aH)-yl)phenyl)-furan-2-carboxamide] | 5050 nM |
| O=C(Nc1ccc(N2C(=O)C3CCCCN3C2=S)c(Cl)c1)c1ccc(Cl)o1 (stereo not drawn) [Example 1.3.82, 5-chloro-N-(3-chloro-4-(1-oxo-3-thioxohexahydroimidazo[1,5-a]pyridin-2(3H)-yl)phenyl)furan-2-carboxamide] | 2850 nM |
| O=C(Nc1ccc(N2C(=O)NC3(CCC3)C2=O)c(Cl)c1)c1ccccn1 [Example 1.3.14, N-(3-chloro-4-(6,8-dioxo-5,7-diazaspiro[3.4]octan-7-yl)phenyl)picolinamide] | 1280 nM |
| CC12CCCCN1C(=S)N(c1ccc(NC(=O)c3cccc(Cl)n3)cc1Cl)C2=O (stereo not drawn) [Example 1.3.93, 6-chloro-N-(3-chloro-4-(8a-methyl-1-oxo-3-thioxohexahydroimidazo[1,5-a]pyridin-2(3H)-yl)phenyl)picolinamide] | 2400 nM |
| O=C(Nc1ccc(N2C(=O)C3COCCN3C2=S)c(Cl)c1)c1cscn1 (stereo not drawn) [Example 1.3.35, N-(3-Chloro-4-(1-oxo-3-thioxodihydro-1H-imidazo[5,1-c][1,4]oxazin-2(3H,8H,8aH)-yl)phenyl)thiazole-4-carboxamide] | 1490 nM |
| O=C(Nc1ccc(N2C(=O)C3COCCN3C2=O)c(Cl)c1)c1cccs1 (stereo not drawn) [Example 1.3.24, N-(3-Chloro-4-(1,3-dioxodihydro-1H-imidazo[5,1-c][1,4]oxazin-2(3H,8H,8aH)-yl)phenyl)thiophene-2-carboxamide] | 9500 nM |
| O=C(Nc1ccc(N2C(=O)NC3(CCCC3)C2=O)c(Cl)c1)c1ccccn1 [Example 1.3.13, N-(3-chloro-4-(2,4-dioxo-1,3-diazaspiro[4.4]nonan-3-yl)phenyl)picolinamide] | 795 nM |
| CC12CCCCN1C(=O)N(c1ccc(NC(=O)c3ccc(Cl)o3)cc1Cl)C2=O (stereo not drawn) [Example 1.3.89, 5-chloro-N-(3-chloro-4-(8a-methyl-1,3-dioxohexahydroimidazo[1,5-a]pyridin-2(3H)-yl)phenyl)furan-2-carboxamide] | 4670 nM |
| O=C(Nc1ccc(N2C(=O)NC3(CCCCCC3)C2=O)c(Cl)c1)c1ccccn1 [Example 1.3.15, N-(3-chloro-4-(2,4-dioxo-1,3-diazaspiro[4.6]undecan-3-yl)phenyl)picolinamide] | 222 nM |
| O=C(Nc1ccc(N2C(=O)C3CCCCN3C2=S)c(Cl)c1)c1cnccn1 (stereo not drawn) [Example 1.3.76, N-(3-chloro-4-(1-oxo-3-thioxohexahydroimidazo[1,5-a]pyridin-2(3H)-yl)phenyl)pyrazine-2-carboxamide] | 5040 nM |
| O=C(Nc1ccc(N2C(=O)C3COCCN3C2=O)c(Cl)c1)c1ccccn1 (stereo not drawn) [Example 1.3.21, N-(3-Chloro-4-(1,3-dioxodihydro-1H-imidazo[5,1-c][1,4]oxazin-2(3H,8H,8aH)-yl)phenyl)picolinamide] | 2180 nM |
| COc1cc(NC(=O)c2ccccn2)ccc1N1C(=O)C2CCCCN2C1=O (stereo not drawn) [Example 1.3.1, N-(4-(1,3-dioxotetrahydroimidazo[1,5-a]pyridin-2(1H,3H,5H)-yl)-3-methoxyphenyl)picolinamide] | 2700 nM |
| CC(=O)N1CCN2C(=O)N(c3ccc(NC(=O)c4ccccn4)cc3Cl)C(=O)C2C1 (stereo not drawn) [Example 1.3.72, N-(4-(7-acetyl-1,3-dioxohexahydroimidazo[1,5-a]pyrazin-2(3H)-yl)-3-chlorophenyl)picolinamide] | 4510 nM |
| CC(C)N1C(=O)N(c2ccc(NC(=O)c3ccccn3)cc2Cl)C(=O)[C@@H]1C(C)(C)C [Example 1.3.58, (S)-N-(4-(4-(tert-butyl)-3-isopropyl-2,5-dioxoimidazolidin-1-yl)-3-chlorophenyl)picolinamide] | 200 nM |

Continued by falling EC50, values first:

| EC50 | SMILES |
| --- | --- |
| 7060 nM | CN1CC(=O)N(c2ccc(NC(=O)c3ccccn3)cc2Cl)C1=O [Example 1.3.11, N-(3-chloro-4-(3-methyl-2,5-dioxoimidazolin-1-yl)phenyl)picolinamide] |
| 6110 nM | O=C(Nc1ccc(N2C(=O)C3COCCN3C2=O)c(Cl)c1)c1cscn1 (stereo not drawn) [Example 1.3.26, N-(3-Chloro-4-(1,3-dioxodihydro-1H-imidazo[5,1-c][1,4]oxazin-2(3H,8H,8aH)-yl)phenyl)thiazole-4-carboxamide] |
| 3260 nM | O=C(Nc1ccc(N2C(=O)C3CCCCN3C2=S)c(Cl)c1)c1cccc(Cl)n1 (stereo not drawn) [Example 1.3.75, 6-chloro-N-(3-chloro-4-(1-oxo-3-thioxohexahydroimidazo[1,5-a]pyridin-2(3H)-yl)phenyl)picolinamide] |
| 3120 nM | O=C(Nc1ccc(N2C(=O)C3CCCCN3C2=O)cc1)c1ccccn1 (stereo not drawn) [Example 1.3.3, N-(4-(1,3-dioxotetrahydroimidazo[1,5-a]pyridin-2(1H,3H,5H)-yl)phenyl)picolinamide] |
| 2930 nM | O=C(Nc1ccc(N2C(=O)C3COCCN3C2=O)c(Cl)c1)c1ncc(F)cc1F (stereo not drawn) [Example 1.3.27, N-(3-Chloro-4-(1,3-dioxodihydro-1H-imidazo[5,1-c][1,4]oxazin-2(3H,8H,8aH)-yl)phenyl)-3,5-difluoropicolinamide] |
| 2230 nM | O=C(Nc1ccc(N2C(=O)C3CN(C4CCCCC4)CCN3C2=O)c(Cl)c1)c1ccccn1 (stereo not drawn) [Example 1.3.71, N-(3-chloro-4-(7-cyclohexyl-1,3-dioxohexahydroimidazo[1,5-a]pyrazin-2(3H)-yl)phenyl)picolinamide] |
| 2140 nM | O=C(Nc1ccc(N2C(=O)NC3(CCC(c4ccccc4)CC3)C2=O)c(Cl)c1)c1ccccn1 (stereo not drawn) [Example 1.3.51, N-(3-chloro-4-(2,4-dioxo-8-phenyl-1,3-diazaspiro[4.5]decan-3-yl)phenyl)picolinamide] |
| 1910 nM | CC12CCCCN1C(=S)N(c1ccc(NC(=O)c3cnccn3)cc1Cl)C2=O (stereo not drawn) [Example 1.3.92, N-(3-chloro-4-(8a-methyl-1-oxo-3-thioxohexahydroimidazo[1,5-a]pyridin-2(3H)-yl)phenyl)pyrazine-2-carboxamide] |
| 1500 nM | CC(C)[C@]1(C)NC(=O)N(c2ccc(NC(=O)c3ccccn3)cc2Cl)C1=O [Example 1.3.59, (S)-N-(3-chloro-4-(4-isopropyl-4-methyl-2,5-dioxoimidazolidin-1-yl)phenyl)picolinamide] |
| 1120 nM | CC12CCCCN1C(=O)N(c1ccc(NC(=O)c3cccc(F)n3)cc1Cl)C2=O (stereo not drawn) [Example 1.3.90, N-(3-chloro-4-(8a-methyl-1,3-dioxohexahydroimidazo[1,5-a]pyridin-2(3H)-yl)phenyl)-6-fluoropicolinamide] |
| 864 nM | CC12CCCCN1C(=O)N(c1ccc(NC(=O)c3cccc(Cl)n3)cc1Cl)C2=O (stereo not drawn) [Example 1.3.85, 6-chloro-N-(3-chloro-4-(8a-methyl-1,3-dioxohexahydroimidazo[1,5-a]pyridin-2(3H)-yl)phenyl)picolinamide] |
| 354 nM | O=C(Nc1ccc(N2C(=O)C3CCCCN3C2=S)c(Cl)c1)c1cccc(F)n1 (stereo not drawn) [Example 1.3.83, N-(3-chloro-4-(1-oxo-3-thioxohexahydroimidazo[1,5-a]pyridin-2(3H)-yl)phenyl)-6-fluoropicolinamide] |
| 325 nM | CN1C(=O)N(c2ccc(NC(=O)c3ccccn3)cc2Cl)C(=O)C12CC1CCC2C1 (stereo not drawn) [Example 1.3.54, N-(3-chloro-4-(3′-methyl-2′,5′-dioxospiro[bicyclo[2.2.1]heptane-2,4′-imidazolidin]-1′-yl)phenyl)picolinamide] |
| 217 nM | CN1C(=O)N(c2ccc(NC(=O)c3ccccn3)cc2Cl)C(=O)[C@]1(C)Cc1ccc(F)cc1 [Example 1.3.62, (S)-N-(3-chloro-4-(4-(4-fluorobenzyl)-3,4-dimethyl-2,5-dioxoimidazolidin-1-yl)phenyl)picolinamide] |
